From US20040214849A1, “Parenteral administration of 6-hydroxy-oxymorphone for use as an analgesic” (priority 2001, published 2004)

How the values were obtained:
[1] = Pharmacokinetic study: blood plasma levels over 12 hours after administration of oxymorphone; type: in vivo
Description: (§1) In separate studies, blood plasma levels and indications of pain relief were recorded over a 12 hour period. FIGS. 1-4 show graphical representation of the data combining the two studies such that the effect of blood plasma levels on pain can be evaluated.
After this time, oxymorphone levels again drop and eventually fall to levels near the earlier plateau.

Opiate, Delta 1 = assay: Opiate Delta 1 receptor binding assay
pain = assay: Pain relief (PID / categorical pain scores) compared with blood plasma levels; type: in vivo; conditions: based on the pharmacokinetic studies
Description: as §1
The amount administered will be dependent upon normal criteria such as patient weight, intensity of pain, and other factors. Based on the pharmacokinetic studies blood plasma levels around at least 0.05 ng/mL will provide some analgesia. The upper plasma level limit will be ultimately established by safety concerns. […] Subsequent doses may be required to maintain these blood levels.

[2] = biological target: T1, Opiate, Mu (Human Recombinant) (Homo sapiens, UniProt P35372); assay: Opiate Mu receptor binding assay
T1 construct: expressed in transfected cells
T1 sequence (P35372 whole entry): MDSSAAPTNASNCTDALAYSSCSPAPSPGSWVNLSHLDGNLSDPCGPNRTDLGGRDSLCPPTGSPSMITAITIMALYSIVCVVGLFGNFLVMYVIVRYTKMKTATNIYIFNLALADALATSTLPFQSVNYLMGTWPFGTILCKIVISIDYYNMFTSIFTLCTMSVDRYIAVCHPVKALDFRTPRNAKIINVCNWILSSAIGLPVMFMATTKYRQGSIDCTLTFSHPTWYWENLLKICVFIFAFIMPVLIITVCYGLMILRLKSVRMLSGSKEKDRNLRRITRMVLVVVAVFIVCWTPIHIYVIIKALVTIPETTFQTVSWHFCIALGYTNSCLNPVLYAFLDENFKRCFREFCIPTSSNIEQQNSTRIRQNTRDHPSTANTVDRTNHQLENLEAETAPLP

[3] = biological target: T2, Opiate, Delta 2 (Human Recombinant) (Homo sapiens, UniProt P41143); assay: Opiate Delta 2 receptor binding assay
T2 construct: expressed in transfected cells
T2 sequence (P41143 whole entry): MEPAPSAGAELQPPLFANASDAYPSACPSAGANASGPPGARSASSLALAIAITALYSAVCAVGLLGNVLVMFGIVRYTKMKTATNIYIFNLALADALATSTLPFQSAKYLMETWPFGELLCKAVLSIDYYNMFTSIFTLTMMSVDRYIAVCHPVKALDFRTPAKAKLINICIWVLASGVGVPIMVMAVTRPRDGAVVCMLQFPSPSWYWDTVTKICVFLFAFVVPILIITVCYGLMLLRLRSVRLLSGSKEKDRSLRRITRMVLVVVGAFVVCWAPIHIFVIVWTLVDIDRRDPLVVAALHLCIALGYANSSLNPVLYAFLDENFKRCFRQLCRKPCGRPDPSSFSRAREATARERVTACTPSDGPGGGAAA

[4] = biological target: T3, Opiate, Kappa (Human Recombinant) (Homo sapiens, UniProt P41145); assay: Opiate Kappa receptor binding assay
T3 construct: expressed in transfected cells
T3 sequence (P41145 whole entry): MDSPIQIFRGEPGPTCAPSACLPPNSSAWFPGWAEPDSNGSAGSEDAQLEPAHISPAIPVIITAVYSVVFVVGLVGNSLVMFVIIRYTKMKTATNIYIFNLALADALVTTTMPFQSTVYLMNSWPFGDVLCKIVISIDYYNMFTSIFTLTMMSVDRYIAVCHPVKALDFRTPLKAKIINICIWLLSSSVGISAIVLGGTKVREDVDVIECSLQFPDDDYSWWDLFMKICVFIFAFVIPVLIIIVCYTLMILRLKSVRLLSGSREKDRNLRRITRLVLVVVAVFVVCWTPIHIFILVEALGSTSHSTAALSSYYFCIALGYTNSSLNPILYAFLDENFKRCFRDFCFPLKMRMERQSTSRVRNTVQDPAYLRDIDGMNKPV

| SMILES | time of second spike of blood plasma level ([1]; from administration of oxymorphone) [h] | binding, Opiate Delta 1 (Opiate, Delta 1; 10 nm (1.0 E−8)) [%] | binding, Opiate Delta 1 (Opiate, Delta 1; 10 μm (1.0 E−5)) [%] | blood plasma level that will provide some analgesia (pain) | binding, Opiate Mu (Human Recombinant) ([2]; 10 nm (1.0 E−8)) [%] | binding, Opiate Mu (Human Recombinant) ([2]; 10 μm (1.0 E−5)) [%] | binding, Opiate Delta 2 (Human Recombinant) ([3]; 10 nm (1.0 E−8)) [%] | binding, Opiate Delta 2 (Human Recombinant) ([3]; 10 μm (1.0 E−5)) [%] | time of peak blood plasma level ([1]; after administration of oxymorphone) [h] | binding, Opiate Kappa (Human Recombinant) ([4]; 10 nm (1.0 E−8)) [%] | binding, Opiate Kappa (Human Recombinant) ([4]; 10 μm (1.0 E−5)) [%] |
| --- | --- | --- | --- | --- | --- | --- | --- | --- | --- | --- | --- |
| CN1CC[C@]23c4c5ccc(O)c4O[C@H]2C(=O)CC[C@@]3(O)[C@H]1C5 [oxymorphone] | 4 to 6 | −18.26 | 89.03 | – | – | – | – | – | – | – | – |
| CN1CC[C@]23c4c5ccc(O)c4O[C@H]2C(O)CC[C@@]3(O)[C@H]1C5 (stereo partly shown) [6-hydroxy oxymorphone] | – | −4.12 | 90.48 | at least 0.05 ng/mL | 63.16 | 99.91 | 7.19 | 55.45 | ≤ 2 | 2.45 | 62.47 |
